The values that follow come from paper PMC8443589, “Modelling human liver fibrosis in the context of non-alcoholic steatohepatitis using a microphysiological system” (Communications Biology, 2021).

The test deals with liver MPS NASH model (PHH, KC and HSC co-cultures). Nature of the test: Cue study: RNAseq transcriptomic profile, enriched pathways. It counts as cell-based, human. The following applies: GO term enrichment and cluster analysis, 14 days. As for the experimental part:
Fig. 4 Systems biology interrogation of liver MPS NASH model to determine physiologically relevant cues that promote transcriptional changes to mimic advanced NASH disease state. […]
The MPS LC12 plates consists of 12 individual bioreactors that contain pneumatically driven micro-pumps to recirculate cell culture medium through a collagen-coated scaffold. […] Microtissues were then cultured in either HEP-Lean or HEP-Fat medium, both media’s are proprietary to CN Bio Innovations Ltd. The HEP-Fat medium is a derivative of the HEP-LEAN medium and contains a mixture of saturated and unsaturated FFAs, as well as physiologically relevant quantities of insulin and sugars. […]
Prior to RNA-seq integrity and quantity of RNA were assessed by Fragment Analyzer high sensitivity RNA kit (Agilent Technologies, USA). […] Quality and quantity of libraries were assessed by Fragment Analyzer standard sensitivity NGS kit (Agilent Technologies, USA). […] The sample pools were quantified with a Qubit Fluorometer (ThermoFisher Scientific, USA) using the dsDNA HS kit (ThermoFisher Scientific, USA), further diluted and sequenced to >13 M paired reads/sample on NextSeq500 (Illumina, USA) with PE 75 base pair (bp) read length setting.
The sequencing data were demultiplexed using Illumina bcl2fastq2-v2.16. The quality of the reads was assessed using FastQC (www.bioinformatics.babraham.ac.uk/projects/fastqc). […]

For the substance “TGFβ: recombinant TGF beta 1 protein (Abcam), 1 ng/ml cue”, the “enriched pathways / gene clusters induced” value was “induced a wide range of clusters associated with collagen formation and matrix reorganisation”.
